Test results: patent publication US20080226682A1, “Immunoactive Compositions for Improved Oral Delivery of Vaccines and Therapeutic Agents” (PerOs Systems Technologies, Inc., priority 2007, published 2008)
Read-outs that look alike come from different tables or passages of the source.

Key:
[1] = system: LPS induced NO generation in RAW264.7 cells; experiment: PUFA pretreatment, LPS induced NO generation in RAW264.7
[2] = Plasma pharmacokinetics of antibiotics (HPLC); assay type: in vivo, Coho salmon (Oncorhynchus kisutch); conditions: for AUC, times higher in Formula 2 than same concentration in commercial feed: oral, same dose in both; for Cmax / Tmax / AUC(0-t): plasma; for AUC(0-t): read-out: AUC(0-120 h)
Method: In the first study, Coho salmon (n-70 fish/group) were treated with flumequine at a dose of 30 mg/kg incorporated in commercial feed or in formula F2. In the second study, fish were treated orally with florfenicol, antibiotic was given at 15 mg/kg incorporated in commercial feed or at 15 and 50 mg/kg in formula F2. In addition, florfenicol was also given via i.p. injection at 20 mg/kg. At predetermined time periods post-administration, blood samples were collected via the caudal vein according to routine procedures. Levels of antibiotics in plasma of fish were determined by high performance liquid chromatography (HPLC).

equine immune cells = conditions: purified isoflavone
swine immune cells = conditions: purified isoflavone
[3] = system: LPS-induced NO generation in RAW264.7 cells; experiment: LPS-induced NO generation in RAW264.7 cells (1 hour pretreatment with isoflavones or saponins); assay type: cell-based, murine
Method: In yet another exemplary embodiment, the ability of isoflavones to modulate the production of LPS-induced NO generation in RAW264.7 cells was investigated. […] Cells were incubated with isoflavones for 1 hour at 37±2° C.
Cells were incubated with saponins 1 hour at 37±2° C.

canine immune cells = conditions: purified isoflavone
shrimp immune cells = conditions: purified isoflavone
bovine immune cells = conditions: purified isoflavone
trout immune cells = assay type: cell-based; conditions: purified isoflavone
From the text: The pellet is suspended in RPMI medium.

salmon immune cells = conditions: purified isoflavone
human immune cells = conditions: purified isoflavone
[4] = system: PHA induced IFN-gamma production in calf PBMC; experiment: PHA induced IFN-gamma production in calf PBMC; assay type: cell-based; conditions: PHA-E+L 1 ug/ml, 3 days, FIG. 9
Method: Calf PBMC were isolated as described in Example 3. […] After incubation, supernatants were sampled. Supernatants from identical treatment wells were combined and stored frozen at −18±5° C. until tested for IFN-gamma. Supernatant samples were tested for bovine IFN-gamma using a commercial kit (Thermo Scientific). Briefly, plates were coated overnight with capture antibody in carbonate coating buffer. […] Plates were washed and treated with streptavidin-HRP for 30 minutes at RT. Plates were washed and substrate was added for 20 minutes at RT in the dark. Following incubation, stop solution was added to each well, and plates were read at 450 nm (550 nm reference wavelength). Data was plotted as Stimulation Index (IFN-gamma concentration of sample treated with isoflavone divided by IFN-gamma concentration of sample treated with PHA only) vs. isoflavone concentration. Since isoflavones dilutions were made in DMSO, the DMSO carrier was tested at the corresponding concentrations to determine the carrier effect.

feline immune cells = conditions: purified isoflavone
[5] = Blood glucose after oral administration of insulin; assay type: in vivo, CD1 mice; conditions: FIG. 14
Method: Preparation of protease inhibitor extracts. Protease inhibitors (4.44 g beans and 0.56 g albumen) were homogenized in Tris-HCL buffer (pH 7.5). The mixture was divided in equal volumes, centrifuged (3500 RPM for 10 minutes) and supernatants were pooled together. Supernatant was then concentrated by centrifugation through 10K cut-off Millipore filter tubes.
Preparation of uptake-increasing agents solution. In a 15 ml falcon tube, 1 ml of carbonate-bicarbonate buffer (0.25 M, pH 9.5) was added to 45 mg of sodium deoxycholate and stirred until complete dissolution. In another 15 ml falcon tube, 7 ml of carbonate-bicarbonate buffer (0.25 M, pH 9.5) was added to 450 mg of EDTA and stirred until complete dissolution. Both solutions were then pooled together.
Final preparation of liquid formulation. […] The liquid formulation was then kept at 4° C. until use.
Experimental Design. Twenty four female CD1 mice of an average weight of 30 g were used in this study (see Table 14 for the identification of experimental groups). […]
CD1 mice were gavaged with insulin (200 U/kg) incorporated in a liquid composition (group A) and in water (group B). […] At determined time periods post-administration (see Table 13), blood samples were taken via the retroorbital sinus and blood glucose levels were measured individually for each animal using an Ascencia™ DEX-2 blood glucose meter kit.

[6] = po, 15 mg/kg, oral in Oralject ™ (F2)
[7] = po, 15 mg/kg, oral in commercial feed
[8] = po, 50 mg/kg, oral in Oralject ™ (F2)
[9] = po, 30 mg/kg, oral in Oralject ™ (F2)
[10] = po, 30 mg/kg, oral in commercial feed

CCCCC/C=C\C/C=C\C/C=C\C/C=C\CCCC(=O)O [AA, arachidonic acid]
concentration required to inhibit to a similar level (40%) ([1]; 24 hours pretreatment, LPS 1 μg/ml 8 hours): 100 µM | immunomodulatory activity ([1]; FIG. 8): marginal to no immunomodulatory activity

CC/C=C\C/C=C\C/C=C\C/C=C\C/C=C\CCCCCC(=O)O [DPA, docosapentaenoic acid]
inhibition (text: of proliferation; FIG. 8: of LPS induced NO production) ([1]; 1 μM PUFA, 24 hours pretreatment, LPS 1 μg/ml 8 hours): 40% | fold more effective at inhibiting than the N-6 PUFA, AA ([1]; FIG. 8): 10-100 fold

CS(=O)(=O)c1ccc([C@@H](O)[C@@H](CF)NC(=O)C(Cl)Cl)cc1 [Florfenicol]
AUC, times higher in Formula 2 than same concentration in commercial feed [2]: 5.2 times | Cmax ([2]; ip, 20 mg/kg, i.p. injection): 7050 ng/mL | Tmax ([2]; ip, 20 mg/kg, i.p. injection): 4 h | AUC(0-t) ([2]; ip, 20 mg/kg, i.p. injection, 20 mg/kg): 196000 ng·h/mL | Cmax [2, 6]: 2150 ng/mL | Tmax [2, 6]: 16 h | AUC(0-t) ([2]; po, 15 mg/kg, oral in Oralject ™ (F2), 15 mg/kg): 34400 ng·h/mL | Cmax [2, 7]: 1380 ng/mL | Tmax [2, 7]: 8 h | AUC(0-t) ([2]; po, 15 mg/kg, oral in commercial feed, 15 mg/kg): 6700 ng·h/mL | Cmax [2, 8]: 7960 ng/mL | Tmax [2, 8]: 6 h | AUC(0-t) ([2]; po, 50 mg/kg, oral in Oralject ™ (F2), 50 mg/kg): 136000 ng·h/mL

CC1CCc2cc(F)cc3c(=O)c(C(=O)O)cn1c23 (stereo not shown) [Flumequine]
peak plasma concentration, fold higher via Formula 2 than with commercial feed ([2]; 30 mg/kg oral, FIG. 17): approximately 5 fold | AUC, times higher in Formula 2 than same concentration in commercial feed [2]: 3.7 times | Cmax [2, 9]: 440 ng/mL | Tmax [2, 9]: 2 h | AUC(0-t) ([2]; po, 30 mg/kg, oral in Oralject ™ (F2), 30 mg/kg): 61900 ng·h/mL | Cmax [2, 10]: 2290 ng/mL | Tmax [2, 10]: 8 h | AUC(0-t) ([2]; po, 30 mg/kg, oral in commercial feed, 30 mg/kg): 16800 ng·h/mL

CCCCC/C=C\C/C=C\CCCCCCCC(=O)O [LA, linoleic acid]
immunomodulatory activity ([1]; FIG. 8): marginal to no immunomodulatory activity

COc1ccc(-c2coc3cc(O)cc(O)c3c2=O)cc1 [biochanin A, 5,7-dihydroxy 4′-methoxy isoflavone]
Cytokine Secretion Profile (determined by RT-PCR) (equine immune cells): IL-10 | Cytokine Secretion Profile (determined by RT-PCR) (swine immune cells): None | fold higher inhibitory activity compared to daidzein or genistein ([3]; 25 μM, FIG. 10): approximately 10 fold | Cytokine Secretion Profile (determined by RT-PCR) (canine immune cells): IL-4, IL-10 | Cytokine Secretion Profile (determined by RT-PCR) (shrimp immune cells): None | Cytokine Secretion Profile (determined by RT-PCR) (bovine immune cells): None | Cytokine Secretion Profile (determined by RT-PCR) (trout immune cells): None | Cytokine Secretion Profile (determined by RT-PCR) (salmon immune cells): IL-4 | Cytokine Secretion Profile (determined by RT-PCR) (human immune cells): none | effect on stimulation indices (IFN-gamma) compared to DMSO control ([4]; 1 μM isoflavone): pronounced increase | effect on stimulation indices (IFN-gamma) compared to DMSO control ([4]; 100 μM isoflavone): inhibitory effect | Cytokine Secretion Profile (determined by RT-PCR) (feline immune cells): IL-4, IL-10

O=c1c(-c2ccc(O)cc2)coc2cc(O)ccc12 [daidzein]
Cytokine Secretion Profile (determined by RT-PCR) (equine immune cells): None | Cytokine Secretion Profile (determined by RT-PCR) (swine immune cells): None | Cytokine Secretion Profile (determined by RT-PCR) (canine immune cells): None | Cytokine Secretion Profile (determined by RT-PCR) (shrimp immune cells): IFN-gamma | Cytokine Secretion Profile (determined by RT-PCR) (bovine immune cells): IL-10 | Cytokine Secretion Profile (determined by RT-PCR) (trout immune cells): IFN-gamma | Cytokine Secretion Profile (determined by RT-PCR) (salmon immune cells): IFN-gamma | Cytokine Secretion Profile (determined by RT-PCR) (human immune cells): IFN-gamma | effect on stimulation indices (IFN-gamma) compared to DMSO control ([4]; 10 nM or 100 nM isoflavone): pronounced decrease | effect on stimulation indices (IFN-gamma) compared to DMSO control ([4]; 1 μM isoflavone): pronounced increase | effect on stimulation indices (IFN-gamma) compared to DMSO control ([4]; 100 μM isoflavone): inhibitory effect | Cytokine Secretion Profile (determined by RT-PCR) (feline immune cells): IL-4

O=c1c(-c2ccc(O)cc2)coc2cc(O)cc(O)c12 [genistein, 4′5,7-trihydroxyisoflavone]
Cytokine Secretion Profile (determined by RT-PCR) (equine immune cells): None | Cytokine Secretion Profile (determined by RT-PCR) (swine immune cells): IL-4 | Cytokine Secretion Profile (determined by RT-PCR) (canine immune cells): None | Cytokine Secretion Profile (determined by RT-PCR) (shrimp immune cells): None | Cytokine Secretion Profile (determined by RT-PCR) (bovine immune cells): IL-10 | Cytokine Secretion Profile (determined by RT-PCR) (trout immune cells): IL-4, IL-10 | Cytokine Secretion Profile (determined by RT-PCR) (salmon immune cells): IL-10 | Cytokine Secretion Profile (determined by RT-PCR) (human immune cells): IL-10 | effect on stimulation indices (IFN-gamma) compared to DMSO control ([4]; 10 nM or 100 nM isoflavone): pronounced decrease | effect on stimulation indices (IFN-gamma) compared to DMSO control ([4]; 1 μM isoflavone): pronounced increase | effect on stimulation indices (IFN-gamma) compared to DMSO control ([4]; 100 μM isoflavone): no effect | Cytokine Secretion Profile (determined by RT-PCR) (feline immune cells): None

CC1(C)C[C@@H](O)[C@]2(C)CC[C@]3(C)C(=CC[C@@H]4[C@@]5(C)CC[C@H](O)[C@](C)(CO)[C@@H]5CC[C@]43C)[C@@H]2C1 [sapogenol B, Sapogenol B]
rank of inhibitory potency among saponins ([3]; FIG. 11): most potent inhibitor | inhibition of LPS-induced NO production ([3]; lowest concentrations, FIG. 11): Zero to minimal inhibition | inhibitory effect on LPS-induced NO production ([3]; saponins in DMSO, FIG. 11): inhibited LPS-induced NO production

insulin: Human recombinant insulin (Sigma, #I2643)
effect on blood glucose levels ([5]; 200 U/kg oral gavage in liquid composition (Formula 2)): markedly reduced blood glucose levels | effect on blood glucose levels ([5]; 200 U/kg oral gavage in water): no efficacy in reducing glucose levels
